Experimental data published in PMC10412605 (Nature Communications, 2023).

Key:
human mSerRS = target: T1, human mSerRS (Homo sapiens, UniProt Q9NP81); assay: cryo-EM structure, […] Å; assay type: binding; settings: complex with stabilized mtRNASer(UGA) transcript; both active sites of the dimer occupied; pH 7.0, 7.5 mM MgCl2
T1 construct: gene SARS2; aa 31-518, without N-terminal 30 residues; N-terminal GST tag (pGEX-6P1) cut by PreScission protease; expressed in E. coli BL21(DE3); homodimer
T1 sequence (Q9NP81 31-518): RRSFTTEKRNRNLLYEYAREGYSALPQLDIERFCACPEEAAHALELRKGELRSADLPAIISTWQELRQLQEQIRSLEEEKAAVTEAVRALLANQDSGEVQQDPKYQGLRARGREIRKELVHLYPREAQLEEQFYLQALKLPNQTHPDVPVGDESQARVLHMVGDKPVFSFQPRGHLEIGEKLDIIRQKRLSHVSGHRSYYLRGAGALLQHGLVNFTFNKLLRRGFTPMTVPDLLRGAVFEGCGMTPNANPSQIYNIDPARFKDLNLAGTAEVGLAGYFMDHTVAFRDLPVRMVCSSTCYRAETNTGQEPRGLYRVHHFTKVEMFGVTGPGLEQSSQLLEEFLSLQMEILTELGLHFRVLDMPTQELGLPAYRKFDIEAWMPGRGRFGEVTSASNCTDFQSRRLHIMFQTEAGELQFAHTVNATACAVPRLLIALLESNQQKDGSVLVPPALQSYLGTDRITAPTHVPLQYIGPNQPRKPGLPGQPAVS

[1] = target: the molecule itself; assay: mass photometry; 25 nM mSerRS, 125 nM mtRNASer(UGA), 250 nM SerSA; 20 mM HEPES pH 7.0, 100 mM NaCl, 7.5 mM MgCl2, 1 mM DTT

In the case of `Nc1ncnc2c1ncn2[C@@H]1O[C@H](COS(=O)(=O)NC(=O)[C@@H](N)CO)[C@@H](O)[C@H]1O` [SerSA, 5’-O-[N-(L-seryl)sulfamoyl] adenosine], the “cryo-EM structure, 3.6 Å” value (human mSerRS) is reported as “Both active sites are occupied by a SerSA ligand”.

B1: human mSerRS (mitochondrial seryl-tRNA synthetase) (enzyme, UniProt Q9NP81 31-518, looked up)
chain: T1 sequence (Q9NP81 31-518)
notes: also called mt-SerRS; not shown: GST, N-terminal, cleaved
In the case of B1, the “stoichiometry N” value [1] is reported as 2.
